Reference: US12459951B2, “Compounds that interact with RAS superfamily proteins for treatment of cancers, inflammatory diseases, rasopathies, and fibrotic disease” (SHY Therapeutics, LLC, priority 2022, dated 2025)

Columns and labels:
[1] = system: MAPK p38 phosphorylation; assay: MAPK p38 Activation Assay (western blot), Panc-1; format: cell-based, human; details: at 10 μM, Panc-1 pancreatic cancer cell line; starred symbols = activation
Method: Protocol for MAPK p38 Activation Assay
This assay is referred to as the “MAPK p38 Activation Assay” throughout this application.
Cell lines: Human tumor-derived pancreatic cancer cell line Panc-1 (expressing KRas G12D mutant) was purchased from American Type Culture Collection and grown in complete DMEM-High Glucose medium, supplemented with penicillin (100 U/mL), streptomycin (100 μg/mL), and 10% heat-inactivated FBS at 37° C. in a humidified incubator with 5% CO2.
Method 1: Cells were plated at 350000 cells/well density in a 12-well plate, allowed 3 hours to adhere to the plate, then starved in the appropriate medium in the presence of 0.5% FBS overnight. The small molecules to be tested were added to the cells in the final concentration of 10 μM in the presence of 0.3% DMSO for 6 hours incubation at 37° C. For IC50 value determination, serial dilutions of compounds were added to cells under the same conditions. Next, cells were stimulated with 1.5 ng/ml EGF for 15 minutes then cells were lysed with lysis buffer containing 1% Triton X-100, EDTA, and Halt™ Protease & Phosphatase Inhibitor Cocktail (Thermo Scientific). Protein concentration was assessed by BCA protein assay (Thermo Scientific). Phosphorylation level of MAPK p38 was determined by western blot.
Method 2: Cells were plated at 350000 cells/well density in a 12-well plate in 10% FBS. The next day small molecules to be tested were added to the cells in the final concentration of 10 μM in the presence of 0.3% DMSO for 6 hours incubation at 37° C. For IC50 value determination, serial dilutions of compounds were added to cells under the same conditions. Next, cells were lysed with lysis buffer containing 1% Triton X-100, EDTA, and Halt™ Protease & Phosphatase Inhibitor Cocktail (Thermo Scientific). Protein concentration was assessed by BCA protein assay (Thermo Scientific). Phosphorylation level of MAPK p38 was determined by western blot.
Western blot protocol: Equal amounts of protein (15-50 μg) were separated by SDS-PAGE and transferred to nitrocellulose membranes (Invitrogen by Thermo Fisher Scientific). The membrane was stained with Ponceau S Stain (Boston BioProducts) to verify uniform protein loading. Membranes were blocked with 10% milk and phosphorylation levels of MAPK p38 were assessed by incubating overnight at 4° C. with the following antibody: Phospho-p38 MAPK (Thr180/Tyr182), from Cell Signaling Technology. Then the membranes were incubated with HRP-conjugated secondary antibody (Jackson Immunoresearch, West Grove, PA). Bands were incubated in Amersham ECL Prime Western Blotting Detection Reagent (GE Healthcare) and visualized using the ChemiDoc MP imaging system (Bio-Rad).

[2] = target: T1, Rheb (Homo sapiens, UniProt Q15382); assay: Rheb GTP Binding Domain Inhibition Assay; details: read-out: Rheb: % inh.
T1 construct: made in house
Method: (§1) Protocol for Cdc42 and Rheb GTP Binding Domain Inhibition Assay
(§2) The following method was developed as specific assay for cdc42 and Rheb proteins.
(§3) • 25 mM Tris-HCl, pH 7.4 • 27 mM KCl • 137 mM NaCl • 1 mM MgCl2 • 1 mM DTT Buffer-II: • 50 mM Tris-HCl, pH 7.0 • 1 mM MgCl2 • 1 mM DTT
(§4) The small GTPases proteins cdc42 and Rheb were expressed as His-tagged proteins. For the assay, the cdc42 and Rheb purified small GTPases proteins were diluted in Buffer-I or Buffer-II to a final concentration of 10-30 μg/mL. 200 μL of each diluted protein was added to a nickel-coated 96-well plate and incubated overnight at […]. Then the protein solution was discarded and 200 μL of Buffer-I or Buffer-II was added to each well in the presence of 1% DMSO. Compounds to be tested were added to the protein-coated wells at final concentration of 20 μM, and incubated for 3 hours at room temperature with and without 10-30 μg/mL of Sos added to the final hour of the incubation. When performing IC50 measurements a serial dilution of all tested concentrations was added. Then Cy3-GTP or Cy5-GTP was added to each well to a final concentration of 100 nM. The labeled GTP was incubated for 45 minutes at room temperature. Following GTP incubation, wells were washed 3× in Buffer-I or Buffer-II and 200 μL of Buffer-I or Buffer-II was added to each well. Following washes, the amount of bound labeled-GTP was measured using a SpectraMax M3 (Molecular Devices).

[3] = target: T2, cdc42 (Homo sapiens, UniProt P60953); assay: Cdc42 GTP Binding Domain Inhibition Assay; details: read-out: Cdc42: % inh.
T2 construct: made in house
Method: as §1, §2, §3, §4

T2 sequence (P60953 whole entry, the tested form may be a part): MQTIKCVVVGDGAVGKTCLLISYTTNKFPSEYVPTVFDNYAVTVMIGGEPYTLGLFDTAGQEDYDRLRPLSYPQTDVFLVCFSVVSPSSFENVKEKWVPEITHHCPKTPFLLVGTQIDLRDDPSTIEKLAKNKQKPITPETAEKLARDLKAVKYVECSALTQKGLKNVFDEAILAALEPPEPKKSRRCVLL
T1 sequence (Q15382 whole entry, the tested form may be a part): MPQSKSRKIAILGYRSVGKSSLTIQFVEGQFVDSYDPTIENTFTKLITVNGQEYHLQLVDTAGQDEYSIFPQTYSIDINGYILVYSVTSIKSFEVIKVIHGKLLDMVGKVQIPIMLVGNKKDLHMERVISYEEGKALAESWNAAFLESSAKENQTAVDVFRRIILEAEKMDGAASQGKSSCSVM

Row | SMILES | inhibition at 20 µM [2] [%] | inhibition at 20 µM [3] [%] | % inh of MAPK p38 in Panc-1 [1]
1 | CO[C@H]1CC[C@@H](Nc2nc(-c3ccccn3)nn3cc(-c4ccn(C(C)C)n4)c(C)c23)C1 (racemic) [Compound 9, rac 6-(1-Isopropyl-1H-pyrazol-3-yl)-N-((1R,3S)-3-methoxycyclopentyl)-5-methyl-2-(pyridin-2-yl)pyrrolo[2,1-f][1,2,4]triazin-4-amine] | – | – | G* (G* = 75-99% activation)
2 | Cc1c(-c2ccn(C(C)C)n2)cn2nc(-c3ccccn3)nc(O)c12 [Compound 8, 6-(1-Isopropyl-1H-pyrazol-3-yl)-5-methyl-2-(pyridin-2-yl)pyrrolo[2,1-f][1,2,4]triazin-4-ol] | – | – | H* (H* ≥ 100% activation)
3 | COc1cc(Nc2nc(-c3nccn3C)nn3cc(-c4ccccn4)c(C)c23)ncn1 [Compound 94, N-(6-Methoxypyrimidin-4-yl)-5-methyl-2-(1-methyl-1H-imidazol-2-yl)-6-(pyridin-2-yl)pyrrolo[2,1-f][1,2,4]triazin-4-amine] | 26 to 49 | 26 to 49 | –

The next lines start with results.

Row | inhibition at 20 µM [2] [%] | inhibition at 20 µM [3] [%] | SMILES | % inh of MAPK p38 in Panc-1 [1]
4 | 76 to 100 | 50 to 75 | COc1cc(Nc2nc(-c3nccn3C)nn3cc(-c4ccn(C(C)C)n4)c(C)c23)ncn1 [Compound 6, 6-(1-Isopropyl-1H-pyrazol-3-yl)-N-(6-methoxypyrimidin-4-yl)-5-methyl-2-(1-methyl-1H-imidazol-2-yl)pyrrolo[2,1-f][1,2,4]triazin-4-amine] | E* (E* = 1-30% activation)
5 | 76 to 100 | 76 to 100 | Cc1c(-c2ccn(C(C)C)n2)cn2nc(-c3nccn3C)nc(Nc3nccn3C)c12 [Compound 93, 6-(1-Isopropyl-1H-pyrazol-3-yl)-5-methyl-N,2-bis(1-methyl-1H-imidazol-2-yl)pyrrolo[2,1-f][1,2,4]triazin-4-amine] | H* (H* ≥ 100% activation)
6 | 50 to 75 | 50 to 75 | COc1ccnc(Nc2nc(-c3nccn3C)nn3cc(-c4ccn(C(F)F)n4)c(C)c23)n1 [Compound 95, 6-(1-(Difluoromethyl)-1H-pyrazol-3-yl)-N-(4-methoxypyrimidin-2-yl)-5-methyl-2-(1-methyl-1H-imidazol-2-yl)pyrrolo[2,1-f][1,2,4]triazin-4-amine] | –
